According to the supplement of paper PMC7600603:

How the values were obtained:
Conditions in all cases: 72 h; CellTox Green cytotoxicity
DLD1 NRF2-GOF [1] = experiment: TC50 cytotoxicity; higher = less toxic
In short: (§1)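 After growth in DMEM with 10% FBS, NRF2 wild-type and CRISPR-edited isogenic DLD1 cells were seeded in 384-well plates and given library compounds at 5 concentrations across a 10,000-fold range. Fluorescence from CellTox Green was taken on a Pherastar FS reader after 72 h and normalised against vehicle wells and 100-μM positive-control wells. From logistic dose-response fits of cytotoxicity came the TC50 and the drug sensitivity score, a normalised area under the curve.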

DLD1 NRF2-WT [2] = experiment: TC50 cytotoxicity; higher = less toxic
In short: as §1

DLD1 NRF2-GOF [3] = experiment: drug sensitivity score (DSS) cytotoxicity (DSS score); higher = more toxic; extreme values may be limits of the assay
In short: as §1

DLD1 NRF2-WT [4] = experiment: as above
In short: as §1

SMILES | TC50 cytotoxicity (DLD1 NRF2-GOF [1]) [µM] | TC50 cytotoxicity (DLD1 NRF2-WT [2]) [µM] | drug sensitivity score (DLD1 NRF2-GOF [3]) | drug sensitivity score (DLD1 NRF2-WT [4])
CCCOc1ccn2c(C(C)=O)cc(-c3ccccc3S(C)(=O)=O)c2c1 [GSK2801] | > 10 | > 10 | 0 | 0
CS(=O)(=O)c1ccc(C(=O)Nc2ccc(Cl)c(-c3ccccn3)c2)c(Cl)c1 [Vismodegib] | > 10 | > 10 | 0 | 0
CC1(C)CC[C@]2(NC(=O)C(C)(F)F)CC[C@]3(C)[C@H](C(=O)C=C4[C@@]5(C)C=C(C#N)C(=O)C(C)(C)[C@@H]5CC[C@]43C)[C@@H]2C1 [Omaveloxolone] | > 10 | > 10 | 0 | 0
CC#CC(=O)N1CC[C@@H](n2c(=O)n(-c3ccc(Oc4ccccc4)cc3)c3c(N)ncnc32)C1 [ONO-4059] | > 1 | > 1 | 0 | 0
C[C@@H]1CN(Cc2ccc(F)cc2)[C@@H](C)CN1C(=O)c1cc2c(C(=O)C(=O)N(C)C)cn(C)c2cc1Cl [Talmapimod] | > 10 | > 10 | 0 | 0
Nc1nc(NC2CC2)cc(-c2cccc(Cl)c2Cl)n1 [TH588] | > 25 | > 25 | 0 | 0
Cc1c(C(=O)Nc2ccc(N3C[C@@H](C)O[C@@H](C)C3)nc2)cccc1-c1ccc(OC(F)(F)F)cc1 [Sonidegib] | > 10 | > 10 | 0 | 0
CN(C(=O)c1ccc(F)cc1C(F)(F)F)C1CCN(c2nnc(-c3ccnn3C)c3ccccc23)CC1 [Taladegib] | > 10 | > 10 | 0 | 0
Cc1cc(C(C)Nc2ccccc2)c2nc(N3CCOCC3)cc(=O)n2c1 (stereo not given) [TGX-221] | > 10 | > 10 | 0 | 0
COc1cc(C(=O)O)ccc1NC(=O)[C@@H]1N[C@@H](CC(C)(C)C)[C@](C#N)(c2ccc(Cl)cc2F)[C@H]1c1cccc(Cl)c1F [Idasanutlin] | > 10 | > 10 | 0 | 0
CCC1(c2ccc(N)cc2)CCC(=O)NC1=O (stereo not given) [Aminoglutethimide] | > 10 | > 10 | 0 | 0
O=C(O)CCCCC(CCSCc1ccccc1)SCc1ccccc1 (stereo not given) [CPI-613] | > 10 | > 10 | 0 | 0
Cn1cnc2c(F)c(Nc3ccc(Br)cc3F)c(C(=O)NOCCO)cc21 [Binimetinib] | > 1 | > 1 | 0 | 0
Oc1nc(-c2ccc(C(F)(F)F)cc2)nc2c1CSCC2 [XAV-939] | > 10 | > 10 | 0 | 0
COc1cc2c(NC3CCN(C(C)C)CC3)nc(N3CCC(F)(F)CC3)nc2cc1OCCCN1CCCC1 [UNC0642] | > 10 | > 10 | 0.1 | 0
Cc1cc(Nc2nc(N[C@@H](C)c3ncc(F)cn3)ncc2Cl)[nH]n1 [AZD1480] | > 1 | > 1 | 0 | 0
N#Cc1ccc2[nH]c(O)c(-c3ccc(CN4CCOCC4)cn3)c2c1 [AZD-1080] | > 10 | > 10 | 0 | 0
CNC(=O)[C@@H](NC(=O)[C@H](CC(C)C)[C@H](O)C(=O)NO)C(C)(C)C [Marimastat] | > 10 | > 10 | 0 | 0
COc1nc(N)nc2c1ncn2[C@@H]1O[C@H](CO)[C@@H](O)[C@@H]1O [Nelarabine] | > 10 | > 10 | 0 | 0
CN(C)c1cc2c(cc1Sc1nc3c(N)nccc3n1CCNCC(C)(C)C)OCO2 [CUDC-305] | > 10 | > 10 | 0 | 0

SMILES | TC50 cytotoxicity (DLD1 NRF2-GOF [1]) [µM] | TC50 cytotoxicity (DLD1 NRF2-WT [2]) [µM] | drug sensitivity score (DLD1 NRF2-GOF [3]) | drug sensitivity score (DLD1 NRF2-WT [4])
Cn1cc(CNCC2CCN(c3ncc(C(=O)NO)cn3)CC2)c2ccccc21 [Quisinostat] | > 1 | 0.135 | 0 | 5.1
CCN(CC)CCNC(=O)c1c(C)[nH]c(/C=C2\C(=O)Nc3ccc(-c4csc(-c5ccccc5)n4)cc32)c1C [Amcasertib] | > 10 | > 10 | 0 | 0
CCCCCOC(=O)Nc1nc(=O)n([C@@H]2O[C@H](C)[C@@H](O)[C@H]2O)cc1F [Capecitabine] | > 10 | > 10 | 0 | 0
CN1CCN(c2ccc(C(=O)Nc3n[nH]c4ccc(Cc5cc(F)cc(F)c5)cc34)c(NC3CCOCC3)c2)CC1 [Entrectinib] | > 1 | > 1 | 0 | 0
CC(O)(CS(=O)(=O)c1ccc(F)cc1)C(=O)Nc1ccc(C#N)c(C(F)(F)F)c1 (stereo not given) [Bicalutamide] | > 10 | > 10 | 0 | 0
C=CCN(/C=C1/C(=O)O[C@H](COC)[C@@]2(C)C1=C(O)C(=O)C1=C2[C@H](OC(C)=O)C[C@]2(C)C(=O)CC[C@@H]12)CC=C [Sonolisib] | > 10 | > 10 | 0 | 0
NC(=O)c1cccc(-c2cccc(OC(=O)NC3CCCCC3)c2)c1 [URB597] | > 1 | > 1 | 0 | 0
Cc1ccc(NC(=O)c2ccc(CN3CC[C@H](N(C)C)C3)c(C(F)(F)F)c2)cc1Nc1nccc(-c2cncnc2)n1 [Bafetinib] | > 1 | > 1 | 0 | 0
CN(C)Cc1ccc(S(=O)(=O)n2ccc(/C=C/C(=O)NO)c2)cc1 [Resminostat] | > 10 | > 10 | 0 | 0
CCNCCS(=O)(=O)NC[C@@]1(c2ccccc2)SC(NC(=O)C(C)(C)C)=NN1C(=O)C(C)(C)C [Litronesib] | > 1 | > 1 | 1.6 | 0
CCS(=O)(=O)N1CC(CC#N)(n2cc(-c3ncnc4[nH]ccc34)cn2)C1 [Baricitinib] | > 2.5 | > 2.5 | 0 | 0
O=C(O)CC1CC(c2ccccc2)=NO1 (stereo not given) [VGX-1027] | > 10 | > 10 | 0 | 0
Nc1cccc2c1CN(C1CCC(=O)NC1=O)C2=O (stereo not given) [Lenalidomide] | > 100 | > 100 | 0 | 0
NC(=O)/C(=C/n1cnc(-c2cc(C(F)(F)F)cc(C(F)(F)F)c2)n1)c1cncnc1 [KPT-8602] | > 10 | > 10 | 0 | 0
C[C@]12CC[C@H](O)CC1=CC[C@@H]1[C@@H]2CC[C@]2(C)C(c3cccnc3)=CC[C@@H]12 [Abiraterone] | > 5 | > 5 | 0 | 0
CC(C)c1cc(C(=O)N2Cc3ccc(CN4CCN(C)CC4)cc3C2)c(O)cc1O [Onalespib] | > 2.5 | > 2.5 | 0 | 0
NC(=S)N/N=C/c1ncccc1N [Triapine] | > 10 | > 10 | 0 | 0
O=C(CCCCCCNC(=O)c1cnc(N(c2ccccc2)c2ccccc2)nc1)NO [Rocilinostat] | > 10 | > 10 | 0 | 0
O=C(/C=C\n1cnc(-c2cc(C(F)(F)F)cc(C(F)(F)F)c2)n1)NNc1ccccn1 [Verdinexor] | > 1 | > 1 | 0 | 0
CCOC(=O)C1=CCCC[C@H]1S(=O)(=O)Nc1ccc(F)cc1Cl [Resatorvid] | > 10 | > 10 | 0 | 0

SMILES | TC50 cytotoxicity (DLD1 NRF2-GOF [1]) [µM] | TC50 cytotoxicity (DLD1 NRF2-WT [2]) [µM] | drug sensitivity score (DLD1 NRF2-GOF [3]) | drug sensitivity score (DLD1 NRF2-WT [4])
O[C@H]1CC[C@H](Nc2ncc3nc(Nc4c(F)cc(F)cc4F)n([C@H]4CCOC4)c3n2)CC1 [Tanzisertib] | > 10 | > 10 | 0 | 0
Nc1nc2cc(-c3ccc4ncc(C(=O)N5CCOCC5)n4c3)ccc2o1 [MLN1117] | > 10 | > 10 | 0 | 0
CCCCNc1ncc(C(=O)NCc2ccc(-n3ccnc3)cc2)c(NC2CCC(O)CC2)n1 (stereo not given) [UNC2881] | > 2.5 | > 2.5 | 0 | 0
NC(=O)c1cccc2cn(-c3ccc(C4CCCNC4)cc3)nc12 (stereo not given) [Niraparib] | > 10 | > 10 | 0 | 0
COC(=O)c1ccc2c(c1)[nH]c1ncnc(NCCCN3CCCCC3)c12 [UM729] | > 10 | > 10 | 0 | 0
CN1CC[C@@H](NC(=O)Nc2ccc(C#N)cc2)C[C@@H]1c1nc2ccccc2[nH]1 [Glasdegib] | > 1 | > 1 | 0 | 0
CC[C@@H](C(=O)[C@@H](C)[C@@H](O)[C@H](C)[C@@H]1O[C@@H]([C@@H](CC)C(=O)O)CC[C@@H]1C)[C@H]1O[C@]2(C=C[C@@H](O)[C@]3(CC[C@@](C)([C@H]4CC[C@](O)(CC)[C@H](C)O4)O3)O2)[C@H](C)C[C@@H]1C [Salinomycin] | > 50 | > 50 | 0 | 0.2
N#CC1(c2ccc(NC(=O)c3cccnc3NCc3ccncc3)cc2)CCCC1 [Apatinib] | > 10 | > 10 | 0 | 0
Cc1c(-c2ccc(N3CCc4cccc(C(=O)Nc5nc6ccccc6s5)c4C3)nc2C(=O)O)cnn1CC12CC3CC(CC(C3)C1)C2 | > 1 | – | 0 | –
Nc1nc(OCc2cc(Br)cs2)c2[nH]cnc2n1 [Lomeguatrib] | > 10 | > 10 | 0 | 0
CN(CC(=O)N(Cc1ccc(C2CCCCC2)cc1)c1ccc(C(=O)O)cc1)S(=O)(=O)c1c(F)c(F)c(F)c(F)c1F [SH-4-54] | > 25 | > 25 | 0 | 0
Cc1sc2c(c1C)C(c1ccc(Cl)cc1)=N[C@@H](CC(=O)Nc1ccc(O)cc1)c1nnc(C)n1-2 [Birabresib] | > 10 | > 10 | 0 | 0
CNS(=O)(=O)Nc1nccc(Cc2c(C)c3ccc(Oc4ncccn4)cc3oc2=O)c1F | > 1 | > 1 | 0 | 0
O=C(Nc1cccc(Nc2ncc(Br)c(NCCc3cnc[nH]3)n2)c1)N1CCCC1 [BX-912] | > 10 | > 10 | 2.5 | 2.2
CC(C)[C@@H](CS(=O)(=O)C(C)C)N1C(=O)[C@@](C)(CC(=O)O)C[C@H](c2cccc(Cl)c2)[C@H]1c1ccc(Cl)cc1 [AMG-232] | > 10 | > 10 | 0 | 0
CCN1C(=O)CNc2ncc(-c3ccc(-c4nc[nH]n4)nc3C)nc21 [CC-115] | > 10 | – | 0.1 | 1.4
C[C@@H]1CCN(C(=O)CC#N)C[C@@H]1N(C)c1ncnc2[nH]ccc12 [Tofacitinib] | > 5 | > 5 | 0 | 0
CN(C)CCCOc1ccc(-c2ccc3ncc4c(c3c2)n(C2CCOCC2)c(=O)n4C)cn1 [AZD0156] | > 1 | > 1 | 0 | 0
CC(C)C[C@@H](C(=O)N[C@H](C(=O)OC1CCCC1)c1ccccc1)[C@H](O)C(=O)NO [Tosedostat] | > 10 | – | 4.6 | 4.9
O=C(c1cccc(Cl)c1F)N1CCN(Cc2cccc(Nc3nccs3)n2)CC1 [MK-8745] | 1.55 | – | 2.9 | 2
